{"source": "paper PMC8795149", "about": "“Characterization of a novel non-steroidal glucocorticoid receptor agonist optimized for topical treatment” (Scientific Reports, 2022)", "key": {"[1]": {"test_system": "LPS-induced TNF-alpha release in PBMCs", "assay": "TNF-alpha inhibition assay, pig PBMCs", "assay_type": "cell-based", "settings": "for EC50: geometric mean", "procedure": "(§1) PMBCs were isolated from human buffy coats or animal whole blood (EDTA-treated). Buffy coats from anonymized healthy adult blood donors were obtained from the Blood Bank of the National University Hospital Copenhagen in accordance with national legislation. Whole blood from mice (obtained from Charles River) was sampled at the animal facility at LEO Pharma and whole blood from pigs was sourced from ScanTox. Test compounds and PBMCs were incubated with 1 µg/ml LPS (Sigma) overnight at 37 °C in HEPES and Glutamax-containing RPMI medium supplemented with either 0.5% human serum albumin (human PBMCs) or 10% fetal bovine serum (mouse and pig PBMCs) and penicillin/streptomycin. TNF-alpha was measured using AlphaLISA (Perkin Elmer).\n(§2) IC50 of test compounds was determined by 10-point titrations in duplicates. IC50 values and other parameters were calculated by sigmoidal curve fitting in Assay Explorer."}, "[2]": {"test_system": "LPS-induced TNF-alpha release in PBMCs", "assay": "TNF-alpha inhibition assay, human PBMCs", "assay_type": "cell-based", "settings": "for EC50: geometric mean; for Potency compared to LEO 134310, TNF-alpha release: human PBMC assay", "procedure": "as §1, §2"}, "[3]": {"test_system": "spleen weight, plasma osteocalcin, body weight", "assay": "TPA-induced skin inflammation in mice, systemic side effects", "assay_type": "in vivo, mouse", "settings": "for Reduction of body weight gain, spleen weight, and plasma osteocalcin levels: indicating systemic exposure; for Osteocalcin concentration ID50 / Osteocalcin concentration Imax: plasma; for Spleen weight ID50 / Spleen weight Imax: topical; for Suppression of osteocalcin levels at efficacious doses on skin inflammation: mouse TPA model", "procedure": "Female Balb/c mice of 7 to 8 weeks old were obtained from Charles River, Germany and acclimatized for at least 1 week. Skin inflammation was induced by repeated topical application of TPA (20 μL of 0.01% TPA in acetone; 10 μL to each side of ear) on days 1, 3, 5, 8 and 10.\nTreatments were performed by topical application of either vehicle (90% acetone, 10% transcutol), Treatments were applied twice daily on days 8, 9, 10, and once on day 11 (20–10 μL to each side of ear) with at least 5 h between the first and second treatment. TPA challenge on days 8 and 10 was performed at least 1 h after the first treatment. On day 11, animals were sacrificed 2 h after the last dosing. Blood was sampled by cardiac puncture from animals anaesthetized with isoflurane. Thereafter, ear biopsies were taken with a biopsy punch (8 mm diameter), weighed and stored at – 80 °C. Plasma osteocalcin levels were analyzed by EIA (rat-MID, IDS, UK). Effective inhibitory doses (ID50) were determined from a sigmoid I(max) model in Phoenix64, Pharsight, Certara. Therapeutic Index (TI) was calculated either as ID50 for spleen weight reduction or ID50 for blood osteocalcin concentrations, divided by ID50 for ear weight reduction."}, "HPA axis": {"test_system": "HPA axis", "design": "method as in PMID 3553247", "settings": "topical; cited from earlier work"}, "[4]": {"assay": "Compound concentration in dermis, human skin explants", "assay_type": "in vitro ADME", "settings": "24 h, propylene carbonate", "procedure": "NativeSkin models (NS002) were purchased from Genoskin, France. Human skin samples from abdominal reduction surgery were obtained by Genoskin from donors upon written informed consent. Full ethical approval for the study protocol was obtained from the French ethical research committee (Comité de Protection des Personnes), and authorization was given by the French Ministry of Research. The study was conducted according to the Declaration of Helsinki. 8 mm punch biopsies were excised and embedded in a fibrin-based matrix in transwells and a silicone ring was firmly attached to the surface covering the outer edge of the skin biopsy to prevent lateral diffusion of topically applied formulations. […]\nThe concentrations of the compounds in dermis were determined from skin biopsies from the human skin explants. […] After homogenization, the samples were diluted, centrifuged and precipitated with acetonitrile containing internal standard (IS), and the compounds were thereafter quantified by means of liquid chromatography-tandem mass spectrometry (LC-MS/MS) using an AB Sciex 5500 or 6500 QTRAP. Calibration curves were prepared by spiking the analytes in blank homogenate, and a generic IS were used in quantification. The dermis micro molar concentrations were calculated assuming 1 gram of skin tissue equal to 1 mL."}, "[5]": {"assay": "In vivo pharmacokinetics in rat, i.v.", "procedure": "The pharmacokinetic profile of LEO 134310 was determined in rat (male Sprague Dawley) and dog (female Beagle) after intravenous (i.v.) injection at 1 mg/kg. LEO 134310 was administered in isotonic cyclodextrin solution at 0.5 mg/mL (0.1% Citrate buffer pH 4, 20% hydroxy-propyl-β-cyclodextrin in 0.2% NaCl). The i.v. dose was given as a bolus in rats and as a slow injection over 2 min in dogs. The dosing volume was 2 mL/kg. Blood was immediately diluted after sampling in an inhibitory cocktail containing acetylcholinesterase inhibitor Dichlorvos [1 mg/mL in an 8 mg/mL K2EDTA solution in phosphate buffer (PBS)] and samples were stored at − 80 °C until analysis. Samples were analyzed by LC–MS/MS using an API 5500/API 6500 QTRAP mass spectrometer. Pharmacokinetic parameters were derived from a non-compartment model in Phoenix64 (Pharsight, Certara)."}, "[6]": {"assay": "Hepatocyte stability (minipig)", "assay_type": "in vitro ADME", "settings": "predicted hepatic clearance, well stirred model", "procedure": "Compounds (1.0 µM) were incubated in duplicates with rat, dog, minipig or human hepatocytes (1.0 million cells/mL) in phosphate buffer, in 96-well plates for 120 min (37 °C). Reactions were stopped by addition of cold acetonitrile, at 0, 10, 30, 60, and 120 min, and dispensed into cold acetonitrile to stop the reactions. Plates were centrifuged for 30 min and samples were analysed using liquid chromatography coupled to a time-of-flight mass spectrometer. Compound depletion over time was used to estimate the elimination rate constant, from which the apparent intrinsic clearance (CLapp), and half-life (t½), were calculated."}, "[7]": {"test_system": "PPAR-alpha, LXR-beta, RAR-alpha, RXR-alpha, ER-alpha, PR, AR, ER-beta and TR", "assay": "Selectivity screening on nuclear receptors, radioligand binding (CEREP)", "design": "species or system human", "settings": "10µM; greater than 25% displacement considered significant", "procedure": "Selectivity screening on nuclear receptors – Studies were performed at CEREP using their proprietary assays for human PPARalpha, LXRbeta, RARalpha, RXRalpha, ERalpha, ERbeta, progesterone receptor, androgen receptor and thyroid hormone receptor employing specific, radiolabeled agonist ligands. Interactions leading to greater than 25% displacement of the radiolabeled agonist ligand were considered significant. Concentrations of LEO 134310 and LEO 134998 were 10µM."}, "[8]": {"settings": "TPA mouse model, CV (%) in brackets"}}}
{"molecule": "CCCCC(=O)O[C@]1(C(=O)CO)[C@@H](C)C[C@H]2[C@@H]3CCC4=CC(=O)C=C[C@]4(C)[C@@]3(F)[C@@H](O)C[C@@]21C", "note": "[BMV, Betamethasone Valerate]", "values": [{"measurement": "Emax", "setting": "[1]; Sus scrofa, PBMC", "value": 99, "unit": "%"}, {"measurement": "EC50", "setting": "[1]; Sus scrofa, PBMC", "value": 1.5, "unit": "nM"}, {"measurement": "Emax", "setting": "[2]; PBMC, Human PBMCs", "value": 79, "unit": "%"}, {"measurement": "EC50", "setting": "[2]; PBMC, Human PBMCs", "value": 3.2, "unit": "nM"}, {"measurement": "Potency compared to LEO 134310, TNF-alpha release", "setting": "[2]", "value": "equipotent"}, {"measurement": "Therapeutic index (Osteocalcin ID50/Ear ID50)", "setting": "[3]; TPA mouse model", "value": 39}, {"measurement": "Therapeutic index (Spleen ID50/Ear ID50)", "setting": "[3]; TPA mouse model", "value": 21}, {"measurement": "Reduction of body weight gain, spleen weight, and plasma osteocalcin levels", "setting": "[3]; TPA mouse model", "value": "dose-dependent reduction"}, {"measurement": "Osteocalcin concentration ID50", "setting": "[3]; [8]", "value": "200 (24) µg/mL"}, {"measurement": "Osteocalcin concentration Imax", "setting": "[3]; [8]", "value": "74 (10) %"}, {"measurement": "Spleen weight ID50", "setting": "[3]; [8]", "value": "110 (25) µg/mL"}, {"measurement": "Spleen weight Imax", "setting": "[3]; [8]", "value": "58 (9) %"}, {"measurement": "Suppression of osteocalcin levels at efficacious doses on skin inflammation", "setting": "[3]", "value": "did"}]}
{"molecule": "CCC(=O)O[C@]1(C(=O)CCl)[C@@H](C)C[C@H]2[C@@H]3CCC4=CC(=O)C=C[C@]4(C)[C@@]3(F)[C@@H](O)C[C@@]21C", "note": "[CP, Clobetasol Propionate]", "values": [{"measurement": "Emax", "setting": "[1]; Sus scrofa, PBMC", "value": 95, "unit": "%"}, {"measurement": "EC50", "setting": "[1]; Sus scrofa, PBMC", "value": 0.38, "unit": "nM"}, {"measurement": "Effect on morning plasma cortisol", "setting": "HPA axis", "value": "reduce morning plasma cortisol significantly"}, {"measurement": "Emax", "setting": "[2]; PBMC, Human PBMCs", "value": 79, "unit": "%"}, {"measurement": "EC50", "setting": "[2]; PBMC, Human PBMCs", "value": 0.52, "unit": "nM"}, {"measurement": "Potency compared to LEO 134310, TNF-alpha release", "setting": "[2]", "value": "fourfold more potent"}, {"measurement": "Therapeutic index (Osteocalcin ID50/Ear ID50)", "setting": "[3]; TPA mouse model", "value": 43}, {"measurement": "Therapeutic index (Spleen ID50/Ear ID50)", "setting": "[3]; TPA mouse model", "value": 17}, {"measurement": "Reduction of body weight gain, spleen weight, and plasma osteocalcin levels", "setting": "[3]; TPA mouse model", "value": "dose-dependent reduction"}, {"measurement": "Osteocalcin concentration ID50", "setting": "[3]; [8]", "value": "64 (17) µg/mL"}, {"measurement": "Osteocalcin concentration Imax", "setting": "[3]; [8]", "value": "88 (4) %"}, {"measurement": "Spleen weight ID50", "setting": "[3]; [8]", "value": "26 (27) µg/mL"}, {"measurement": "Spleen weight Imax", "setting": "[3]; [8]", "value": "70 (8) %"}, {"measurement": "Suppression of osteocalcin levels at efficacious doses on skin inflammation", "setting": "[3]", "value": "did"}]}
{"molecule": "C[C@H](NC(=O)[C@H]1CCCO1)[C@H](Oc1ccc(C(=O)O[C@H]2CCCN(C(=O)[C@H]3COC(=O)C3)C2)cc1)c1ccc(C2CC2)cc1", "note": "[LEO 134310]", "values": [{"measurement": "Higher dose needed to achieve similar dermis concentrations compared to BMV", "setting": "[4]", "value": 3, "unit": "fold"}, {"measurement": "Higher dose needed to achieve similar dermis concentrations compared to CP", "setting": "[4]", "value": 7, "unit": "fold"}, {"measurement": "Inhibition of LPS-induced TNF-alpha release Emax", "setting": "[1]", "value": 96, "unit": "%"}, {"measurement": "EC50", "setting": "[1]", "value": 3.2, "unit": "nM"}, {"measurement": "In vivo clearance relative to liver blood flow", "setting": "[5]", "value": 5, "unit": "fold"}, {"measurement": "In vivo clearance", "setting": "[5]; i.v. 1 mg/kg", "value": "360 ± 85 (n = 3) mL/min/kg"}, {"measurement": "In vivo terminal half-life", "setting": "[5]; i.v. 1 mg/kg", "value": "190 ± 171 (n = 3) min"}, {"measurement": "In vitro (hepatocytes) CLH", "setting": "[6]", "value": "> 35 (n = 1) mL/min/kg"}, {"measurement": "Interaction with nine nuclear hormone receptors in specific binding assays", "setting": "[7]", "value": "no significant interaction"}, {"measurement": "Inhibition of LPS-induced TNF-alpha release Emax", "setting": "[2]; Human PBMCs", "value": 77, "unit": "%"}, {"measurement": "EC50", "setting": "[2]; Human PBMCs", "value": 2.3, "unit": "nM"}, {"measurement": "Higher therapeutic index (osteocalcin ID50 to ear weight ID50) compared to CP and BMV", "setting": "[3]; TPA mouse model", "value": "> 5", "unit": "fold"}, {"measurement": "Higher therapeutic index (spleen weight ID50 to ear weight ID50) compared to CP and BMV", "setting": "[3]; TPA mouse model", "value": 2, "unit": "fold"}, {"measurement": "Therapeutic index (Osteocalcin ID50/Ear ID50)", "setting": "[3]; TPA mouse model", "value": "> 200"}, {"measurement": "Therapeutic index (Spleen ID50/Ear ID50)", "setting": "[3]; TPA mouse model", "value": 49}, {"measurement": "Reduction of body weight gain, spleen weight, and plasma osteocalcin levels", "setting": "[3]; TPA mouse model", "value": "not—or only to a lesser extent"}, {"measurement": "Spleen weight Imax", "setting": "[3]; [8]", "value": "42 (56) %"}, {"measurement": "Spleen weight ID50 (extrapolated)", "setting": "[3]; TPA mouse model, ID50 could not be determined, value extrapolated, CV (%) in brackets", "value": "25,000 (110) µg/mL"}, {"measurement": "Suppression of osteocalcin levels at efficacious doses on skin inflammation", "setting": "[3]", "value": "did not suppress osteocalcin levels"}]}
